Experimental findings from patent US8399412B2, “Method of treating or preventing tissue deterioration, injury or damage due to periodontal disease or disease of oral mucosa, and/or downregulating NF-kappabeta or supressing NF-kappabeta-mediated actions” (priority 2006, dated 2013) are described below.

One experiment concerns gingival fibroblasts. As to the kind of experiment: APOPercentage apoptosis assay in TNF-α stimulated gingival fibroblasts. It counts as cell-based, Human. Particulars: TNF-α 20 ng/ml, 8 hours, 0.01 ug/ml Tβ4, p=0.0004. As to the method: It is well documented that proteases from oral bacteria such as P. gingivalis can induce death in different cell types in vitro, including fibroblasts, epithelial cells, and endothelial cells. Apoptosis can also be induced as a component of the inflammatory response.
The fibroblasts were then assayed using the APOPercentage assay (Accurate Chemical, Westbury, N.Y.), which detects changes in cell membrane phospholipids. […] The absorbance of released dye can be measured and correlated to the relative amount of apoptosis in the culture. […] There were a greater number of apoptotic cells in fibroblasts stimulated with TNFα compared to cells stimulated with TNFα and also treated with Tβ4.

Experiment [1] has as its system NFκB. Put plainly: NFκB activity assay (binding to consensus oligonucleotides) in TNF-α stimulated HCET. It counts as cell-based, human. Particulars: TNF-α 10 ng/ml. As to the method: (§1) At each time point the culture medium was removed and the adherent cells were scraped from the dish into 1 ml of cold PBS. The solution was centrifuged at 3000 rpm for 5 minutes. The cell pellet was lysed in 1 ml of cell extraction buffer provided with the activity assay kit (TransAm NFκB p65 Transcription Factor Assay Kit, Active Motif, Carlsbad, Calif.) on ice for 30 minutes, with vortexing every 10 minutes. The extract was centrifuged at 13,000 rpm for 10 minutes at 4° C. and the supernatant was used for activity assays following the kit protocol. In addition to the activity assay, the ELISA for total NFκB p65 subunit protein was completed simultaneously using aliquots of the same supernatants. ELISA values were used to standardize the activity values to correct for differences in protein concentration in each sample. The assays were repeated three times (n=3) and the results of a representative assay are reported as NFκB activity in arbitrary units±SEM. Statistical analysis was performed using the unpaired Student's t-test with significance set at P<0.05.
We hypothesized that Tβ4 functions as a transcription factor mediator in addition to its other known cellular functions. […] Transcription factor activity was analyzed calorimetrically using an assay that measured the ability of NFκB to bind to oligonucleotides containing consensus κB binding motifs immobilized to a plastic substrate. […]

Experiment [2] has as its system NFκB. Put plainly: NFκB activity assay in TNF-α stimulated non-transformed human corneal epithelial cells (HCEC). Particulars: non-transformed human corneal epithelial culture, Tβ4 treatment, results not shown. It counts as cell-based. As to the method:
Non-transformed human corneal epithelial cells (HCEC) at passage 3 were purchased from Cascade Biologics (Portland, Oreg.). […] HCEC were used for experiments at passage 4. The transformed human corneal epithelial cell line 10.014 pRSV-T (HCET) was additionally used in this study. HCET were maintained in serum-free KGM on tissue culture plastic coated with a fibronectin-collagen type I matrix. Cells were cultured in a standard tissue culture incubator at 37° C. and in an atmosphere of 5% CO2 and 95% room air with medium changes every two days.
as §1, with “The assays were repeated three times (n=3) and the results of a representative assay are reported as NFκB activity in arbitrary units±SEM. Statistical analysis was performed using the unpaired Student's t-test with significance set at P<0.05.” left out

For experiment [3], the system named is NFκB p65 subunit. As to the kind of experiment: NFκB p65 phosphorylation assay (CASE ELISA, phosphoserine 276) in HCET. It counts as cell-based, human. The note with it: 30 minutes. As to the method: HCET were cultured in wells of a 96-well plate until approximately 80% confluent. […] At each time point adherent cells were fixed in cell fixing buffer containing 4% glutaraldehyde according to the phosphorylation assay kit protocol (CASE, cellular activation of signaling ELISA for phosphoserine 276 of NFκB p65 subunit, SuperArray, Frederick, Md.). Fixed cells were then processed using phospho-specific (phosphoserine 276 p65) or pan-protein specific (nonphosphorylated p65) primary antibodies and HRP-conjugated secondary antibodies. Following incubation with developing and stop solutions provided with the kit, individual well absorbance was read at 450 nm. Variation in cell number in individual wells was corrected by assaying the OD 540 nm of stained cells following completion of the phosphorylation assay and performing numerical correction of the OD 450 nm values. The assay was repeated twice (n=8) and a representative result is presented as relative amounts of phosphorylated and nonphosphorylated NFκB in arbitrary units±SEM. Statistical analysis was performed using the unpaired Student's t-test with significance set at P<0.05.
In addition to nuclear translocation, the p65 subunit of NFκB must undergo phosphorylation on several serine residues in order to be activated. […]
Background: ELISA stands for enzyme-linked immunosorbent assay.

The test system of experiment [4] is NFκB p65 subunit. Put plainly: Nuclear NFκB p65 protein level ELISA in HCET nuclear fractions. It counts as cell-based, human. Particulars: TNF-α 10 ng/ml, Tβ4 1 μg/ml, 30 minutes, P=0.0066. The procedure:
HCET were cultured until approximately 80% confluent. […] Cells maintained in culture medium only, or Tβ4 only were used as controls. The culture medium was removed and the adherent cells were scraped from the dish into 1 ml of cold PBS. The solution was centrifuged at 3000 rpm for 5 minutes. The cell pellet was resuspended in 0.5 ml hypotonic buffer (20 mM Tris-HCl, pH 7.4, 10 mM NaCl, 3 mM MgCl2) and incubated on ice for 15 minutes. 25 μl of 10% NP-40 was added with vortexing. The homogenate was centrifuged for 10 minutes at 3000 rpm at 4° C. The pellet was resuspended in 100 μl of the cell extraction buffer and incubated for 30 minutes on ice with vortexing every 10 minutes. The homogenate was centrifuged at 14,000 rpm for 30 minutes at 4° C. The resulting supernatant was used for the NFκB total p65 subunit ELISA. A representative analysis is presented as NFκB protein (pg/ml)±SEM. Statistical analysis was performed using the unpaired Student's t-test with significance set at P<0.05.
Nuclear translocation is an essential downstream event in NFκB mediated gene transcription. […] HCET were treated for 30 minutes and the amount of NFκB protein in nuclear fractions was measured by ELISA. Only activated, phosphorylated NFκB is capable of translocating to the nucleus.

Experiment [5] has as its system NFκB p65 subunit. Put plainly: Nuclear translocation of NFκB p65 by immunofluorescence microscopy in HCET. It counts as cell-based, human. Particulars: Tβ4 1 μg/ml during TNF-α stimulation, 30 minutes. As to the method:
HCET were cultured on collagen-coated 4 chambered glass microscope slides to approximately 80% confluence. […] Cells maintained in culture medium only, or Tβ4 only were used as controls. Cells were fixed in 3.7% glutaraldehyde/PBS for 10 minutes then washed in PBS. Cells were permeabilized in 1% Triton X-100 for 5 minutes and washed again. The cells were then incubated with rabbit polyclonal antibodies specific for the N-terminus of human p65 NFκB (Santa Cruz Biotechnologies, Santa Cruz, Calif.) followed by FITC-conjugated goat anti-rabbit secondary antibodies. Digitized images were captured and stored (Axiophot fluorescence microscopy and imaging system, Carl Zeiss Medicine, Inc., Thornwood, N.Y.).
The nuclear translocation of NFκB was also examined morphologically in HCET by immunofluoresence microscopy using an antibody specific for the p65 subunit.

The next experiment concerns IL-8. As to the kind of experiment: TNFα-induced IL-8 secretion by gingival fibroblasts (ELISA). The experiment is classed as cell-based, Human. Particulars: for secreted IL-8 versus fibroblasts not treated with Tβ4: gingival fibroblasts, 20 ng/ml TNF alpha. The procedure: Human gingival Fb grown to 80% confluence, serum-starved, pretreated with Tb4 for one hour then with 20 ng/ml TNFa±Tb4 for 24 hours. […] of conditioned medium was used for ELISA. After removing medium, cells are fixed, stained, and lysed. OD 550 nm readings are used to normalize ELISA data for total cell number. Media control values were negligible and are not shown.
Human gingival fibroblasts (HGF-1, ATCC) were stimulated with TNFα (20 ng/ml), a potent pro-inflammatory cytokine widely used in in vitro models of inflammation.

For Thymosin beta 4 [Tβ4], in the experiment with gingival fibroblasts, the “apoptotic cell death induced by TNF-α” value is on record as “significantly inhibits apoptotic cell death”. The “NFκB activity versus cells stimulated with TNF-α” value in the experiment on NFκB [1] (Tβ4 1 μg/ml, 5, 10, 15 and 20 minutes of stimulation) is reported as “increased NFκB activity”. Also, the “TNF-α induced activation of NFκB” value in the experiment on NFκB [1] (Tβ4 1 μg/ml, 30 and 60 minutes) is “significantly suppressed”. Besides, in the experiment on NFκB [2], the “NFκB activity after TNF-α stimulation” value is listed as “decreased NFκB activity”. Besides, the “reduction of NFκB phosphorylation levels” value in the experiment on NFκB p65 subunit [3] (TNF-α 10 ng/ml, Tβ4 1 μg/ml) worked out at 45%. Also, in the experiment on NFκB p65 subunit [3] (Tβ4 present during TNF-α stimulation, 100% with TNF-α only), the “proportion of phosphorylated NFκB” value is 55%. Further, the “NFκB protein in nuclear fractions” value with NFκB p65 subunit [4] is “significant decrease”. Besides, in the experiment with NFκB p65 subunit [5], the “NFκB p65 localization (fluorescence pattern)” value is “mainly perinuclear”. Besides, the “inhibition of TNFα-stimulated IL-8 secretion” value in the experiment on IL-8 (HGF-1 fibroblasts, TNFα 20 ng/ml, 0.01 ug/ml Tβ4, 24 hours, p=0.0012) was “most inhibition”. The “IL-8 secretion, dose response” value with IL-8 (HGF-1 fibroblasts, TNFα 20 ng/ml, several concentrations of Tβ4, 24 hours, FIG. 3) is given as “inhibited IL-8 secretion in a dose-dependent manner”. The “secreted IL-8 versus fibroblasts not treated with Tβ4” value in the experiment on IL-8 (1 ug/ml Tβ4, 24 hours, FIG. 1, p=0.0004) was “significantly lower levels of secreted IL-8”; in the experiment on IL-8 (5 ug/ml Tβ4, 24 hours, FIG. 1, p=0.0016), “significantly lower levels of secreted IL-8”; with IL-8 (Tβ4 0.001-5 ug/ml (all levels), 24 hours), “lower levels of secreted IL-8”.
